The values below come from patent publication US20140227173A1, “CANCER TREATMENT WITH GAMMA-SECRETASE INHIBITORS” (The Johns Hopkins University, priority 2006, published 2014).

The test system of test [1] is Panc-1 pancreatic cancer cell line. Briefly: Tumorigenicity of pre-treated cells injected subcutaneously in athymic mice. It counts as in vivo. As to conditions: five weeks post-injection; no further drug administered; five mice per arm. The protocol:
(§1) (Top) Experimental scheme illustrating pre-treatment of pancreatic cancer cell lines with GSI-18, prior to plating for soft agar assays and subcutaneous injection in athymic mice. Treatment for 24 hours with GSI-18 or vehicle is followed by recovery in full serum for a further 24 hours minus the drug. Equal numbers of viable cells from the control and treated groups are then plated for colony assays in soft agar, or injected in nude mice. Of note, during the in vitro or in vivo assays, no further drug is administered. […] The dosage required for significant inhibition of clonogenicity varies between 2 μM (Capan-1) to 5 μM (E3LZ10.7). Bar graphs represent colony counts at two weeks, with mean and standard deviations calculated from triplicate experiments. (Left) Pre-treatment with GSI-18 inhibits tumorigenicity of Panc-1 pancreatic cancer cell line in athymic mice. […] Error bars represent standard deviation of five mice per arm.

In test [2] the test system is DAOY:NICD2. Briefly: Viable cell mass (CellTITER assay). It counts as cell-based. The settings on record: 0.4 μM and 2 μM. The protocol:
(§2) The fact that cultures grew 2-fold or more during the same time period that side population was essentially ablated by Notch pathway blockade provides additional support for the notion that medulloblatoma CSC are especially vulnerable to Notch signaling inhibition.
(§3) The DAOY, PFSK, D283 and D425 Med cell lines were obtained from the American Type Culture Collection. The low-passage MB line MB2 was derived from a tumor resected at Johns Hopkins Hospital. For treatment studies, cell were plated and allowed to grow overnight in MEM (Invitrogen, Carlsbad, Calif.) containing 10% FBS, then media was replaced the next morning with low serum (0.5% FBS) MEM containing GSI dissolved in DMSO. RNA and protein extractions, and all cell-based assays, were performed 48 hours after drug application unless otherwise noted. All experiments with error bars were performed in triplicate and shown as mean values with standard error unless otherwise noted. Cell mass was measured using CellTITER assays according to the manufacturer's instructions (Promega, Madison, Wis.). Cell number and viability were assessed using the Guava PCA and Viacount reagent according to instructions (Guava Technologies, Heyward, Calif.). Soft agar assays were performed as previously described (15) and scored either manually after 4 weeks or using as automated reader after 6 weeks. The constitutively active Akt stable cell line was made by transfecting DAOY cells with myristolated Akt (pCB6-IMy-Akt-HA) or control (pCB6+) plasmids (kind gifts from Susan J. Baker) and selecting and maintaining clones in 0.8 mg/ml G418. Soft agar assays were performed as previously described, with colonies counted using an automated reader (15).

In test [3] the test system is MB cultures. Briefly: Viable cell mass (CellTITER assay). It counts as cell-based. Here is the method: as §2, §3
Test [4] relates to Capan-1. As to the kind of experiment: Colony formation in soft agar (clonogenicity). It counts as cell-based, human.
Source text: Specificity of the RNA interference is confirmed by downregulation of Notch1 transcript levels with the specific siRA, but not with the scrambled controls. […] Bar graphs represent colony counts at two weeks, with mean and standard deviations calculated from triplicate experiments.
Bar graphs represent colony counts at two weeks, with mean and standard deviations calculated from triplicate experiments.
as §1

The test system of test [5] is MB2. As to the kind of experiment: Nestin immunocytochemistry, nestin-positive fraction. It counts as cell-based. The settings on record: 2 μM, 48 hours.
Test [6] deals with DAOY. Briefly: Double immunolabeling nestin / Ki67 (proliferation). As to conditions: 2 μM, 48 hours. It counts as cell-based.
The subject of test [7] is GBM neurospheres. Briefly: Proliferation (Ki67 index) in the Nestin positive population of GBM neurospheres. It counts as cell-based. The source says:
It has been shown that the Notch signaling pathway regulates normal stem cells in the Central Neural System (CNS), and that GBMs contain cancer stem cells (CSCs) with higher Notch activity (Cancer Research, 64:7011-21, 2004; Cancer Cell, 9:391-403, 2006). However, it has not been known if Notch pathway blockade could target CSCs in GBM. […] In the present study, we used GBM neurospheres to examine the effects of Notch pathway blockade in GBM. […] Furthermore, overexpression of an active form of Notch2 (NICD2) increases tumor growth in vitro.

In test [8] the test system is Akt. As to the kind of experiment: Akt phosphorylation and cleaved Caspase 3 (Western blot) in DAOY medulloblastoma cells. It counts as cell-based. The protocol: (A) Increase of cleaved Caspase 3 and loss of Akt phosphorylation is induced by 0.4 uMor higher levels of GSI-18, while overall levels of Akt and GAPDH are unchanged in DAOY medulloblastoma cells. (B) Cell death in 2 uM GSI-18 is reduced in a representative subclone of DAOY expressing activated Akt as compare to vector transfected cells. (C) Loss of Akt phosphorylation and activation of Caspase3 cleavage is induced by 2 μM or higher levels of GSI-18, while overall levels of Akt and GAPDH are unchanged in GBM neurosphere cells.
It has previously been shown that Akt is a critical effector of Notch-regulated survival and growth outside the brain (26, 27). Therefore, it was examined whether Akt was also a mediator of the pro-survival and pro-growth effects of Notch in brain tumors. GSI-18 blocks the phosphorylation of Akt required for its activation at concentrations as low as 0.4 μM (FIG. 7F). […] Thus the pro-survival effects of Notch signaling in MB appear to be mediated at least in part by Akt.
Quantitative RT PCR for Notch1, Notch2 and Hes1 was performed as previously described (29), with all reactions normalized to actin (Applied Biosystems, Foster City, Calif.). Commercially available Assay on Demand Taqman primers and probes were used to measure mRNA for Nestin, Bmi1, Tuj1 and GABRA6. Western blots contained 20 μg of protein per lane on a 10% Tris-glycine SDS-PAGE gel (Invitrogen). […]

Test [9] has as its system Notch pathway target Hes1. As to the kind of experiment: Hes1 mRNA and protein levels (RT PCR, Western blot). It counts as cell-based. The protocol:
as §3, with “The constitutively active Akt stable cell line was made by transfecting DAOY cells with myristolated Akt (pCB6-IMy-Akt-HA) or control (pCB6+) plasmids (kind gifts from Susan J. Baker) and selecting and maintaining clones in 0.8 mg/ml G418.” left out
Quantitative RT PCR for Notch1, Notch2 and Hes1 was performed as previously described (29), with all reactions normalized to actin (Applied Biosystems, Foster City, Calif.). […]

Turning to `O=S(=O)(NC1C2CCC1Cc1ccccc1C2)c1cccs1` (stereo not drawn) [GSI-18, [11-endo]-N-(5,6,7,8,9,10-hexahydro-6,9-methanobenzo[α][8]annulen-11-yl)-thiophene-2-sulfonamide], the “tumor volumes from pre-treated cells” value in [1] is given as “minimal tumor volumes”. In addition, the “growth (viable cell mass) under NICD2 expression” value in test [2] is recorded as “rescued growth”. The “short-term increases in viable cell mass” value in test [3] (0 μM, 0.4 μM, and 2 μM) is given as “reduced in a dose-dependent fashion”. Further, in test [3] (same time period in which side population was ablated), the “growth of cultures during Notch pathway blockade” value is listed as not below 2 fold. The “colony formation following pre-treatment” value in [4] (24 hours pre-treatment, 24 hours recovery minus drug, colony counts at two weeks) is reported as “Significant inhibition of colony formation”. The “clonogenicity, colony formation in soft agar” value in test [4] (colony counts at two weeks) is recorded as “significant inhibition of clonogencity”. The “dosage required for significant inhibition of clonogenicity” value in [4] (pre-treatment) was 2 µM. For the same compound, the nestin-positive fraction result in test [5] is listed as “significant reduction”. Moreover, in [6], the “fraction of Ki67 positive cells in nestin-negative subpopulation” value was “changed only slightly” and the “proliferation (Ki67-positive cells) in nestin-positive subpopulation” value is on record as “significant reduction in the proliferation”. Besides, in [7], the “proliferation (Ki67 index) in the Nestin positive population” value is listed as “decrease in proliferation (Ki67 index)”. Moreover, the “levels inducing increase of cleaved Caspase 3 and loss of Akt phosphorylation” value in test [8] (DAOY medulloblastoma cells) is not below 0.4 µM. Besides, the “concentrations blocking the phosphorylation of Akt” value in test [8] (MB cells) was not below 0.4 µM. For the same compound, in test [9] (2 μM, after 48 hours), the “reduction of mRNA and protein levels of Hes1” value is listed as “over 70%”. Besides, in test [9] (data not shown), the “levels that did not affect Hes1 mRNA levels” value is “lower than 0.4 μM”.
